# Measurements published in patent US7462600B2, “Macrolides” (Pfizer Inc, priority 2004, dated 2008).
# Like-named read-outs stand apart in the source and are kept apart here.
# What was measured:
# Format in all cases: cell-based
# [1] = tested on: Haemophilus influenzae 1218; assay: MIC, microtiter broth dilution (NCCLS M100-S14), H. influenzae 1218 (susceptible)
# In short: (§1)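 Panel strains, including macrolide-resistant isolates and their susceptible parents where available, are exposed to serial compound dilutions in microtiter trays. Growth inhibition is scored as MIC under NCCLS M100-S14 standards.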
# [2] = tested on: Streptococcus pyogenes 1079; assay: MIC, microtiter broth dilution (NCCLS M100-S14), S. pyogenes 1079 (ermB)
# In short: as §1
# [3] = tested on: Streptococcus pneumoniae 1016; assay: MIC, microtiter broth dilution (NCCLS M100-S14), S. pneumoniae 1016 (susceptible)
# In short: as §1
# [4] = tested on: Streptococcus pneumoniae 1095; conditions: microtiter broth dilution
# In short: as §1
# [5] = tested on: Streptococcus pneumoniae 1175; conditions: microtiter broth dilution
# In short: as §1
# [6] = H. influenzae 1218 (susceptible)
# [7] = S. pneumoniae 1016 (susceptible)
Structure (SMILES),MIC H. influenzae 1218 ([1]; Haemophilus influenzae 1218),MIC S. pyogenes 1079 ([2]; Streptococcus pyogenes 1079),MIC S. pneumo. 1016 ([3]; Streptococcus pneumoniae 1016),MIC S. pneumo. 1095 ([4]; Streptococcus pneumoniae 1095),MIC S. pneumo. 1175 ([5]; Streptococcus pneumoniae 1175),"MIC H. influenzae 1218 [1, 6]",MIC S. pyogenes 1079 ([2]; S. pyogenes 1079 (ermB)),"MIC S. pneumo. 1016 [3, 7]",MIC S. pneumo. 1095 ([4]; S. pneumoniae 1095 (ermB)),MIC S. pneumo. 1175 ([5]; S. pneumoniae 1175 (mefA))
"CCC1OC(=O)C(C)C(=O)C(C)C(OC2OC(C)CC(N(C)C)C2O)C(C)(OC)CC(C)C(=O)C(C)C2N(C3CN(S(=O)(=O)c4cccc5ncccc45)C3)C(=O)OC12C (stereo not shown) [Example 3.100, 3-descladinosyl-11,12-dideoxy-6-O-methyl-3-oxo-12,11-(oxycarbonyl-(1-(quinoline-5-sulfonyl)-azetidin-3-yl)-imino)-erythromycin A]",0.5 µg/mL,0.125 µg/mL,<0.063 µg/mL,<0.063 µg/mL,<0.063 µg/mL,–,–,–,–,–
"CCC1OC(=O)C(C)C(=O)C(C)C(OC2OC(C)CC(N(C)C)C2O)C(C)(OC)CC(C)C(=O)C(C)C2N(CC3CCCN3C(=O)c3cc4ccccn4n3)C(=O)OC12C [Example 10.14, 3-descladinosyl-11,12-dideoxy-6-O-methyl-3-oxo-12,11-(oxycarbonyl-((1-(pyrazolo[1,5-a]pyridine-2-carbonyl)-(R)-pyrrolidin-2-yl)-methyl)-imino)-erythromycin A]",–,–,–,–,–,0.25 µg/mL,32 µg/mL,<0.06 µg/mL,<0.06 µg/mL,0.12 µg/mL
CCC1OC(=O)C(C)C(=O)C(C)C(OC2OC(C)CC(N(C)C)C2O)C(C)(OC)CC(C)C(=O)C(C)C2N(C3CN(S(=O)(=O)c4ccc5ncsc5c4)C3)C(=O)OC12C (stereo not shown) [Example 3.79],0.25 µg/mL,1 µg/mL,<0.06 µg/mL,<0.06 µg/mL,<0.06 µg/mL,–,–,–,–,–
"CCC1OC(=O)C(C)C(=O)C(C)C(OC2OC(C)CC(N(C)C)C2O)C(C)(OC)CC(C)C(=O)C(C)C2N(C3CN(Cc4c(C)ccc5ccccc45)C3)C(=O)OC12C (stereo not shown) [Example 1.92, 3-descladinosyl-11,12-dideoxy-6-O-methyl-3-oxo-12,11-(oxycarbonyl-(1-(2-methylnaphthalene-1-methyl)-azetidin-3-yl)-imino)erythromycin A]",2 µg/mL,2 µg/mL,<0.063 µg/mL,0.125 µg/mL,<0.063 µg/mL,–,–,–,–,–
CCC1OC(=O)C(C)C(=O)C(C)C(OC2OC(C)CC(N(C)C)C2O)C(C)(OC)CC(C)C(=O)C(C)C2N(CC3CN(Cc4cccc5ncccc45)C3)C(=O)OC12C (stereo not shown) [4.15],0.25 µg/mL,32 µg/mL,<0.06 µg/mL,<0.06 µg/mL,<0.06 µg/mL,–,–,–,–,–
CCC1OC(=O)C(C)(F)C(=O)C(C)C(OC2OC(C)CC(N(C)C)C2O)C(C)(OC)CC(C)C(=O)C(C)C2N(CC3CCCN3C(=O)c3ccc4cccnc4n3)C(=O)OC12C (stereo not shown) [10.30],–,–,–,–,–,2 µg/mL,32 µg/mL,<0.06 µg/mL,<0.06 µg/mL,0.12 µg/mL
"CCC1OC(=O)C(C)C(=O)C(C)C(OC2OC(C)CC(N(C)C)C2O)C(C)(OC)CC(C)C(=O)C(C)C2N(C3CN(C(=O)NCc4cnc5ccccc5c4)C3)C(=O)OC12C (stereo not shown) [Example 2.11, N-((quinolin-3-)methyl) aminocarbonyl]",0.5 µg/mL,>64.00 µg/mL,<0.06 µg/mL,2 µg/mL,0.12 µg/mL,–,–,–,–,–
"CCC1OC(=O)C(C)C(=O)C(C)C(OC2OC(C)CC(N(C)C)C2O)C(C)(OC)CC(C)C(=O)C(C)C2N(C3CN(S(=O)(=O)c4cccc(-c5cnco5)c4)C3)C(=O)OC12C (stereo not shown) [Example 3.35, 3-descladinosyl-11,12-dideoxy-6-O-methyl-3-oxo-12,11-(oxycarbonyl-(1-(3-(oxazol-5-yl)benzenesulfonyl)-azetidin-3-yl)-imino)-erythromycin A]",0.12 µg/mL,1 µg/mL,<0.06 µg/mL,<0.06 µg/mL,<0.06 µg/mL,–,–,–,–,–
CCC1OC(=O)C(C)C(=O)C(C)C(OC2OC(C)CC(N(C)C)C2O)C(C)(OC)CC(C)C(=O)C(C)C2N(CC3CCN(C(=O)c4cccc5cccnc45)C3)C(=O)OC12C (stereo not shown) [13.11],–,–,–,–,–,4 µg/mL,>64.00 µg/mL,<0.06 µg/mL,16 µg/mL,4 µg/mL
"CCC1OC(=O)C(C)C(=O)C(C)C(OC2OC(C)CC(N(C)C)C2O)C(C)(OC)CC(C)C(=O)C(C)C2N(C3CN(Cc4ccncc4)C3)C(=O)OC12C (stereo not shown) [Example 1.04, (pyridin-4-yl)methyl]",0.25 µg/mL,>64.00 µg/mL,<0.06 µg/mL,0.12 µg/mL,0.5 µg/mL,–,–,–,–,–
CCC1OC(=O)C(C)C(=O)C(C)C(OC2OC(C)CC(N(C)C)C2O)C(C)(OC)CC(C)C(=O)C(C)C2N(CC3C4CN(C(=O)c5cc(F)ccc5F)CC43)C(=O)OC12C (stereo not shown) [16.03],–,–,–,–,–,0.5 µg/mL,50 µg/mL,0.01 µg/mL,1.56 µg/mL,0.5 µg/mL
"CCC1OC(=O)C(C)C(=O)C(C)C(OC2OC(C)CC(N(C)C)C2O)C(C)(OC)CC(C)C(=O)C(C)C2N(C3CN(S(=O)(=O)c4cccc(-c5cccnn5)c4)C3)C(=O)OC12C (stereo not shown) [Example 3.72, 3-descladinosyl-11,12-dideoxy-4-O-methyl-3-oxo-12,11-(oxycarbonyl-(1-(3-(pyridazin-3-yl)benzenesulfonyl)-azetidin-3-yl)-imino)erythromycin A]",1 µg/mL,1 µg/mL,<0.06 µg/mL,<0.06 µg/mL,<0.06 µg/mL,–,–,–,–,–
"CCC1OC(=O)C(C)C(=O)C(C)C(OC2OC(C)CC(N(C)C)C2O)C(C)(OC)CC(C)C(=O)C(C)C2N(C3CN(S(=O)(=O)c4cccc(Cl)c4)C3)C(=O)OC12C (stereo not shown) [Example 3.107, 3-descladinosyl-11,12-dideoxy-6-O-methyl-3-oxo-12,11-(oxycarbonyl-(1-(3-chlorobenzene-1-sulfonyl)-azetidin-3-yl)-imino)-erythromycin A]",025 µg/mL,1 µg/mL,<0.063 µg/mL,<0.063 µg/mL,<0.063 µg/mL,–,–,–,–,–
CC[C@H]1OC(=O)[C@H](C)C(=O)[C@H](C)[C@@H](O[C@@H]2O[C@H](C)C[C@H](N(C)C)[C@H]2O)[C@](C)(OC)C[C@@H](C)C(=O)[C@H](C)[C@H]2N(CC3(O)CN(C(=O)c4cc5ccccn5n4)C3)C(=O)O[C@]12C.O=CO [7.30],–,–,–,–,–,8 µg/mL,>64.00 µg/mL,<0.06 µg/mL,0.25 µg/mL,0.25 µg/mL
CCC1OC(=O)C(C)C(=O)C(C)C(OC2OC(C)CC(N(C)C)C2O)C(C)(OC)CC(C)C(=O)C(C)C2N(CC3CN(Cc4n[nH]c5ncccc45)C3)C(=O)OC12C.O=CO (stereo not shown) [4.43],0.25 µg/mL,>64.00 µg/mL,<0.06 µg/mL,0.12 µg/mL,1 µg/mL,–,–,–,–,–
CCC1OC(=O)C(C)C(=O)C(C)C(OC2OC(C)CC(N(C)C)C2O)C(C)(OC)CC(C)C(=O)C(C)C2N(CC3CN(Cc4n[nH]c5ccccc45)C3)C(=O)OC12C (stereo not shown) [4.22],0.12 µg/mL,32 µg/mL,<0.06 µg/mL,2 µg/mL,0.25 µg/mL,–,–,–,–,–
"CCC1OC(=O)C(C)C(=O)C(C)C(OC2OC(C)CC(N(C)C)C2O)C(C)(OC)CC(C)C(=O)C(C)C2N(C3CN(S(=O)(=O)c4ccc(-c5ccon5)s4)C3)C(=O)OC12C (stereo not shown) [Example 3.33, 3-descladinosyl-11,12-dideoxy-6-O-methyl-3-oxo-12,11-(1-(oxycarbonyl-(5-(isoxazol-3-yl)thiophene-2-sulfonyl)-azetidin-3-yl)-imino)-erythromycin A]",0.5 µg/mL,8 µg/mL,<0.06 µg/mL,<0.06 µg/mL,<0.06 µg/mL,–,–,–,–,–
CCC1OC(=O)C(C)C(=O)C(C)C(OC2OC(C)CC(N(C)C)C2O)C(C)(OC)CC(C)C(=O)C(C)C2N(C3CN(S(=O)(=O)c4ccc5c(c4)CS(=O)(=O)C5)C3)C(=O)OC12C (stereo not shown) [Example 3.95],0.5 µg/mL,0.12 µg/mL,<0.06 µg/mL,<0.06 µg/mL,<0.06 µg/mL,–,–,–,–,–
"CCC1OC(=O)C(C)C(=O)C(C)C(OC2OC(C)CC(N(C)C)C2O)C(C)(OC)CC(C)C(=O)C(C)C2N(CC3CN(Cc4c[nH]c5ncccc45)C3)C(=O)OC12C (stereo not shown) [Example 4.18, 3-descladinosyl-11,12-dideoxy-6-O-methyl-3-oxo-12,11-(oxycarbonyl-(1-((1H-pyrrolo[2,3-b]pyridin-3-yl)-methyl)-(azetidin-3-yl)-methyl)-imino)-erythromycin A]",0.25 µg/mL,8 µg/mL,<0.06 µg/mL,0.12 µg/mL,0.5 µg/mL,–,–,–,–,–
"CCC1OC(=O)C(C)C(=O)C(C)C(OC2OC(C)CC(N(C)C)C2O)C(C)(OC)CC(C)C(=O)C(C)C2N(C3CN(S(=O)(=O)c4c[nH]c(=O)[nH]c4=O)C3)C(=O)OC12C (stereo not shown) [Example 3.30, 1,2,3,4-tetrahydro-2,4-dioxopyrimidine-5-sulfonyl]",32 µg/mL,>64.00 µg/mL,1 µg/mL,>64.00 µg/mL,32 µg/mL,–,–,–,–,–
